Assay results: patent US20260070922A1, “PYRAZOLE AND IMIDAZOLE DERIVATIVES AS DUAL OREXIN AND KAPPA-OPIOID RECEPTORS MODULATORS COMPOSITION, METHODS FOR TREATING NEUROLOGICAL AND PSYCHIATRIC DISORDERS” (HAGER BIOSCIENCES, LLC, priority 2022, published 2026)

Legend:
[1] = biological target: T1, human k-opioid receptor (kOR) (Homo sapiens, UniProt P41145); assay: Human k-opioid (KOP) receptor (agonist radioligand [3H]U-69593) binding assay, transfected RBL cell membranes; details: second value of IC50/Ki cell
T1 construct: expressed in transfected cells; host or cells: RBL cells (membrane homogenates)

[2] = biological target: T2, human orexin-2 receptor (OX2R) (Homo sapiens, UniProt O43614); assay: In vitro orexin antagonism assay: intracellular calcium measurement (FLIPR), orexin-A 3 nM as agonist; assay type: cell-based; details: for IC50: first value of IC50/Kb cell; for inhibition at 1 µM: read-out: OX2R, % Inh. @ 1 uM; for Kb: second value of IC50/Kb cell
T2 construct: expressed in transfected cells; host or cells: CHO cells (G418 selection)
T2 sequence (O43614 1-444): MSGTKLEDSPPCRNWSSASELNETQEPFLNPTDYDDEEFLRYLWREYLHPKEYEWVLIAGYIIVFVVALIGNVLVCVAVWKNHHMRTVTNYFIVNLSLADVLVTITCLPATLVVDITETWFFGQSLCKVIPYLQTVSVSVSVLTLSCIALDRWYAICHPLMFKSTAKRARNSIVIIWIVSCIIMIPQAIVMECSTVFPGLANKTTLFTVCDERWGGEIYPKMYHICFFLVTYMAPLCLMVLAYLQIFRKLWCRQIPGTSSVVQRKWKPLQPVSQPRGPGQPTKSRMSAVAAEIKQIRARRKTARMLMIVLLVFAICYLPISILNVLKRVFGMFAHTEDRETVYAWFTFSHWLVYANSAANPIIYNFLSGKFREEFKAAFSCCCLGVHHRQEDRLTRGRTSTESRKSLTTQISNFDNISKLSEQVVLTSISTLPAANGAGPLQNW
Procedure, shortened: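 CHO cells stably expressing human OX1R or OX2R, loaded with fluo-4 AM (3 μM, 5 mM probenecid) for 50 min at 37 °C, then 30 min at RT. Antagonist preincubated 120 min before 3 nM orexin-A; FLIPR fluorescence peak height vs vehicle gives IC50, possibly normalized to on-plate reference; geometric mean of repeats.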

[3] = biological target: T1, human k-opioid receptor (kOR); assay: Human k-opioid (KOP) receptor (agonist radioligand [3H]U-69593) binding assay, transfected RBL cell membranes; details: for IC50: first value of IC50/Ki cell; for inhibition at 1 µM: read-out: KOR % Inh. @ 1 uM
Procedure, shortened: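 Membranes from transfected RBL cells (~80 μg protein) incubated 60 min at 22° C with 0.5 nM [3H]U-69593 in 50 mM Tris-HCl pH 7.4, 10 mM MgCl2, 1 mM EDTA. Nonspecific binding defined with 10 μM naloxone; filtration and scintillation counting. Values are percent inhibition of specific radioligand binding.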

[4] = biological target: T3, Orexin type 1 (OX1R) receptor (Homo sapiens, UniProt O43613); assay: In vitro orexin antagonism assay: intracellular calcium measurement (FLIPR), orexin-A 3 nM as agonist; assay type: cell-based; details: for IC50: first value of IC50/Kb cell; for inhibition at 1 µM: read-out: OX1R, % Inh. @ 1 uM; for Kb: second value of IC50/Kb cell
T3 construct: expressed in transfected cells; host or cells: CHO cells (G418 selection)
T3 sequence (O43613 1-425): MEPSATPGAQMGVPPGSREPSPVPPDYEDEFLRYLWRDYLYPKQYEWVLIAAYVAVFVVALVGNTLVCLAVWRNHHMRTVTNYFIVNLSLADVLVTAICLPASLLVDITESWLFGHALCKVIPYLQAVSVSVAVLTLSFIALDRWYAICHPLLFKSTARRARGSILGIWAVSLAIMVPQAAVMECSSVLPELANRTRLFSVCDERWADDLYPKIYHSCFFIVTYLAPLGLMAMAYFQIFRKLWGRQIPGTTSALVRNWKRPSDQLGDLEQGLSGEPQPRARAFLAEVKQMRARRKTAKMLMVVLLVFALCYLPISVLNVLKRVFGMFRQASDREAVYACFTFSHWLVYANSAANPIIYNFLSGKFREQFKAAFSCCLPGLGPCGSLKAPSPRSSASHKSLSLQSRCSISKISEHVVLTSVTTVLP
Procedure, shortened: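 CHO cells expressing the human orexin receptor were loaded with 3 μM fluo-4 AM plus 5 mM probenecid, then exposed to antagonist for 120 min before 3 nM orexin-A (final) was added on a FLIPR.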

T1 sequence (P41145 whole entry): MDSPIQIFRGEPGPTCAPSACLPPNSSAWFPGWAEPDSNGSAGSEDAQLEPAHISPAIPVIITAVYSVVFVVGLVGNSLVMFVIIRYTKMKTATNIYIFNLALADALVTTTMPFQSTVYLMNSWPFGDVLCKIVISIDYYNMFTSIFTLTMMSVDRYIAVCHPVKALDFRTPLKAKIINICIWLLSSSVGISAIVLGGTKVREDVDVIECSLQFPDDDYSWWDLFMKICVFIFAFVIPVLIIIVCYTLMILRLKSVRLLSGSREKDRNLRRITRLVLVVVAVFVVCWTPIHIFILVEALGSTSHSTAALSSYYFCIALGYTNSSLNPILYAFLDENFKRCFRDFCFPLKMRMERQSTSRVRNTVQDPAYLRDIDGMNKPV

Structure (SMILES) | Ki [1] | IC50 [2] | inhibition at 1 µM [2] | Kb [2] | IC50 [3] | inhibition at 1 µM [3] | IC50 [4] | inhibition at 1 µM [4] | Kb [4] | OX2R, % Inh. @ 1 uM ([2]; @ 1 uM) | KOR % Inh. @ 1 uM ([3]; @ 1 uM) | OX1R, % Inh. @ 1 uM ([4]; @ 1 uM)
O=C(c1c(-c2ccccc2F)nn2ccccc12)N1CCC[C@H]1Cn1cc(-c2ccccc2)cn1 [Example 69] | 0.1 µM | 0.023 µM | 86% | 0.004 µM | 0.19 µM | 76% | 0.009 µM | 100% | 0.002 µM | – | – | –
O=C(c1c(-c2ccccc2)nc2ccc(F)cn12)N1CCC[C@H]1Cn1cc(-c2ccccc2)cn1 [Example 75] | 0.077 µM | 0.16 µM | 76% | 0.028 µM | 0.14 µM | 86% | 0.16 µM | 93% | 0.033 µM | – | – | –
O=C(c1nn2ccccc2c1-c1ccccn1)N1CCC[C@H]1Cn1cc(-c2ccccn2)cn1 [Example 173] | – | 0.26 µM | 82% | 0.045 µM | – | 3% | 0.008 µM | 100% | 0.002 µM | – | – | –
O=C(c1nn2ccccc2c1-c1ccccn1)N1CCC[C@H]1Cn1ccc(-c2ccccn2)n1 [Example 174] | – | – | 56% | – | – | 0% | 0.005 µM | 100% | 0.0009 µM | – | – | –
[2H]C1([2H])CC[C@@]([2H])(Cn2ccc(-c3ccc(F)cc3)n2)N1C(=O)c1c(-c2ncccn2)nn2ccccc12 [Example 178] | – | 0.015 µM | 95% | 0.003 µM | – | 53% | 0.004 µM | 92% | 0.0008 µM | – | – | –
O=C(c1nc2ccccn2c1-c1ccccn1)N1CCC[C@H]1Cn1cc(-c2ccccn2)cn1 [Example 181] | – | – | 39% | – | – | 0% | 0.04 µM | 91% | 0.009 µM | – | – | –
O=C(c1nn2ccccc2c1-c1ccccn1)N1CCC[C@H]1Cn1cc(-c2ccc(F)cn2)cn1 [Example 183] | – | – | 67% | – | – | 0% | 0.038 µM | 94% | 0.009 µM | – | – | –
O=C(c1nn2cccnc2c1-c1ccccn1)N1CCC[C@H]1Cn1cc(-c2ccccn2)cn1 [Example 186] | – | – | 65% | – | – | 3% | 0.021 µM | 86% | 0.004 µM | – | – | –
O=C(c1nn2cccnc2c1-c1ccccn1)N1C(Cn2ccc(-c3ccc(F)cn3)n2)C[C@@H]2C[C@@H]21 (stereo partly shown) [Example 187] | – | – | 34% | – | – | 0% | 0.014 µM | 100% | 0.003 µM | – | – | –
O=C(c1nn2cccnc2c1-c1ccccn1)N1CCC[C@H]1Cn1cc(-c2ccc(F)cn2)cn1 [Example 194] | – | 0.18 µM | 82% | 0.031 µM | – | 0% | – | 89% | – | – | – | –
O=C(c1nn2c(c1-c1ccccn1)OCCC2)N1CCC[C@H]1Cn1cc(-c2ccccn2)cn1 [Example 197] | – | – | 39% | – | – | 2% | 0.031 µM | 97% | 0.007 µM | – | – | –
O=C(c1nn2c(c1-c1ccccn1)COCC2)N1CCC[C@H]1Cn1cc(-c2ccc(F)cn2)cn1 [Example 198] | – | – | – | – | – | – | 0.14 µM | – | 0.029 µM | 50% | 8% | 84%
O=C(c1nn2c(c1-c1ccccn1)OCCC2)N1[C@H](Cn2ccc(-c3ccc(F)cn3)n2)C[C@@H]2C[C@@H]21 [Example 202] | – | – | 14% | – | – | 3% | 0.064 µM | 87% | 0.014 µM | – | – | –
O=C(c1nc2ccccn2c1-c1ccccn1)N1CCC[C@H]1Cn1cc(-c2ccc(F)cn2)cn1 [Example 208] | – | – | 52% | – | – | 0% | 0.039 µM | 100% | 0.008 µM | – | – | –
